Source: ChEMBL document CHEMBL3758136, “Design, synthesis and in vitro activity of phidianidine B derivatives as novel PTP1B inhibitors with specific selectivity” (Bioorg Med Chem Lett, 2016)

Legend:
[1] = biological target: Tyrosine-protein phosphatase non-receptor type 6 (Homo sapiens, UniProt P29350); assay: Inhibition of human SHP1 as hydrolysis of pNPP after 2 mins
[2] = biological target: T1, Tyrosine-protein phosphatase non-receptor type 1 (Homo sapiens, UniProt P18031); assay: Inhibition of recombinant human PTP1B catalytic domain assessed as hydrolysis of pNPP after 2 mins
T1 sequence (P18031 whole entry): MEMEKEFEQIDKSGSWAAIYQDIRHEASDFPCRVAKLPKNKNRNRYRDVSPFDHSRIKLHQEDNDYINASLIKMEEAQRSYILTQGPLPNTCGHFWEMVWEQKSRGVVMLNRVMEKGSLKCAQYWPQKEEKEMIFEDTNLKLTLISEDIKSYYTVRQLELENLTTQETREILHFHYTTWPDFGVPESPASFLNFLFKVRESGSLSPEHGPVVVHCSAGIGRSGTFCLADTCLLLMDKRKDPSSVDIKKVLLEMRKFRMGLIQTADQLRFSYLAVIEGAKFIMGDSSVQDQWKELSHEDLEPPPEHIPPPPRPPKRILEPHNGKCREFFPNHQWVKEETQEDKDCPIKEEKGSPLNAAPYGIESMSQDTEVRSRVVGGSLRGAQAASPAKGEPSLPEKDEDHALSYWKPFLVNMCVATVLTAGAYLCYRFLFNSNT

[3] = biological target: Receptor-type tyrosine-protein phosphatase F (Homo sapiens, UniProt P10586); assay: Inhibition of human LAR as hydrolysis of pNPP after 2 mins
Receptor-type tyrosine-protein phosphatase F, sequence (P10586 whole entry): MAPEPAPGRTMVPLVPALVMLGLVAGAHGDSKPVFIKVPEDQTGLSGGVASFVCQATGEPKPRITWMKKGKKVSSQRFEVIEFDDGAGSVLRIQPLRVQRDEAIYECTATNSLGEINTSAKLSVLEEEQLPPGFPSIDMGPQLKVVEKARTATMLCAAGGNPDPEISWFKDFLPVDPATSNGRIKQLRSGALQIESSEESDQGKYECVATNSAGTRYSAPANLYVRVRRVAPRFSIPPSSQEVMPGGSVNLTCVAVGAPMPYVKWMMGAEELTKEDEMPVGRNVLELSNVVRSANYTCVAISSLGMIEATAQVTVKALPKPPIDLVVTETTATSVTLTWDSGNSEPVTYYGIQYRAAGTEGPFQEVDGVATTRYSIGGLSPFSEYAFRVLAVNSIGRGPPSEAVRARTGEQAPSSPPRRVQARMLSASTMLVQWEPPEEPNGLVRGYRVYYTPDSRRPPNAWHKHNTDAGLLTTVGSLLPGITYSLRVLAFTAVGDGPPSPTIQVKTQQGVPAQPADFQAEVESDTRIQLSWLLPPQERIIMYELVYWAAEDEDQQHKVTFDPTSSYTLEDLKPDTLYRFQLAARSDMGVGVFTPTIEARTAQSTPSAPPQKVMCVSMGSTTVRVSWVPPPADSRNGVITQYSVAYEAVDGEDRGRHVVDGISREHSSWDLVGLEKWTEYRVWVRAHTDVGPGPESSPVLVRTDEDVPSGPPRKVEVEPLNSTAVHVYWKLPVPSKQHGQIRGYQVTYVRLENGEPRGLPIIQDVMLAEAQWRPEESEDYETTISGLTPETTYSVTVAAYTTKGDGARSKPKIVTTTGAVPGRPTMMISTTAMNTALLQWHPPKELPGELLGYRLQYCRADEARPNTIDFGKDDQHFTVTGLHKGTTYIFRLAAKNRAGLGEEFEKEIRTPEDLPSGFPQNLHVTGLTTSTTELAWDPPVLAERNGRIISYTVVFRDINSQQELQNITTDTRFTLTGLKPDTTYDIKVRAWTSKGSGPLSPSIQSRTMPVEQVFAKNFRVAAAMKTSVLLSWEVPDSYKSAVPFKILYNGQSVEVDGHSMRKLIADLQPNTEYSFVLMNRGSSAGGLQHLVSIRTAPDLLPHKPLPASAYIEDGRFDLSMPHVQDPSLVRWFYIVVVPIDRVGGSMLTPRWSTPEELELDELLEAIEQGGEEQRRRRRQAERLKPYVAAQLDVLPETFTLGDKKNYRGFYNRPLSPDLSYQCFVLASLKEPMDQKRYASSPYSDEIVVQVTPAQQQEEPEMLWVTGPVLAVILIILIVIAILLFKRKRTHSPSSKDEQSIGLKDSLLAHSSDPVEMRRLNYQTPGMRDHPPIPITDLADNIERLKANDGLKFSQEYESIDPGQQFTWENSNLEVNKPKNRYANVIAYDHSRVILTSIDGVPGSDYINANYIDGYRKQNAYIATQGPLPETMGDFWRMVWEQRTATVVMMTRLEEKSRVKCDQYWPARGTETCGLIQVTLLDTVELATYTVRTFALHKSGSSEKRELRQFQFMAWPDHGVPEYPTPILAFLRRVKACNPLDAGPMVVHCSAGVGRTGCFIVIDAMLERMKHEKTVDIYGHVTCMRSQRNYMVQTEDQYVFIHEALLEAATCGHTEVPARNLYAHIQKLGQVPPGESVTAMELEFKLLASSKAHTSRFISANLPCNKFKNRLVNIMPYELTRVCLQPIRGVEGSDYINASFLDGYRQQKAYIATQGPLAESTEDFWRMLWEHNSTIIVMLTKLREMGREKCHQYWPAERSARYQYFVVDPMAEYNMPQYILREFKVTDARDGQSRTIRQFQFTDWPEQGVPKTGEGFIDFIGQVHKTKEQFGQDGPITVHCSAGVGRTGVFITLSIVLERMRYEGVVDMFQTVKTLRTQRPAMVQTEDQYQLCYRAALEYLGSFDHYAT

[4] = biological target: T2, Tyrosine-protein phosphatase non-receptor type 11 (Homo sapiens, UniProt Q06124); assay: Inhibition of human SHP2 as hydrolysis of pNPP after 2 mins
T2 sequence (Q06124 whole entry): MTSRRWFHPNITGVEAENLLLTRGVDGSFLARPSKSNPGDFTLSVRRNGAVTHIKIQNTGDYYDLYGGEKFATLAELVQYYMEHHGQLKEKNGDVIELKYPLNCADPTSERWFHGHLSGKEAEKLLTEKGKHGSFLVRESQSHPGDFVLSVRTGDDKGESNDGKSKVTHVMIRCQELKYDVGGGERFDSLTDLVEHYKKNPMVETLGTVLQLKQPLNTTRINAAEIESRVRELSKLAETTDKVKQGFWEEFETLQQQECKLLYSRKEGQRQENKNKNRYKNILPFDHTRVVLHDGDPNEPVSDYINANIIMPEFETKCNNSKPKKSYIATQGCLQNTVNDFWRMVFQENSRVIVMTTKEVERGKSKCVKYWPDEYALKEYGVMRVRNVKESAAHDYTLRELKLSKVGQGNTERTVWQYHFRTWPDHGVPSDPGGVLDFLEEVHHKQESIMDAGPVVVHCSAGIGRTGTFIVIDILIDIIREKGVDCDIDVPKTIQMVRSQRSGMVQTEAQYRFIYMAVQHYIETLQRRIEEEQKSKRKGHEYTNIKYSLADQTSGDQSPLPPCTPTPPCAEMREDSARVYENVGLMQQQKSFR

[5] = biological target: T3, Tyrosine-protein phosphatase non-receptor type 2 (Homo sapiens, UniProt P17706); assay: Inhibition of human TCPTP as hydrolysis of pNPP after 2 mins
T3 sequence (P17706 whole entry): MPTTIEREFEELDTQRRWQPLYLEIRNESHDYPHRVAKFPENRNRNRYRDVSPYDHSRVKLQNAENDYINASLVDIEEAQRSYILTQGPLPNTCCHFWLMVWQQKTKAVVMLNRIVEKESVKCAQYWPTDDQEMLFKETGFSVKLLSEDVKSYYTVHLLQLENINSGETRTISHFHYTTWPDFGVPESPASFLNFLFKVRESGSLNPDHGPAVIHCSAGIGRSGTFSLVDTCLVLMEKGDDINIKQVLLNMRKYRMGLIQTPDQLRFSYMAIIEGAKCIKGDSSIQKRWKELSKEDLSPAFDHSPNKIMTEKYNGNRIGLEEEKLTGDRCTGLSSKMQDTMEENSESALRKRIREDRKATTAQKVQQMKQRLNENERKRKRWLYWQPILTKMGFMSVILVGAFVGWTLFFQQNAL

Tyrosine-protein phosphatase non-receptor type 6, sequence (P29350 whole entry, the tested form may be a part): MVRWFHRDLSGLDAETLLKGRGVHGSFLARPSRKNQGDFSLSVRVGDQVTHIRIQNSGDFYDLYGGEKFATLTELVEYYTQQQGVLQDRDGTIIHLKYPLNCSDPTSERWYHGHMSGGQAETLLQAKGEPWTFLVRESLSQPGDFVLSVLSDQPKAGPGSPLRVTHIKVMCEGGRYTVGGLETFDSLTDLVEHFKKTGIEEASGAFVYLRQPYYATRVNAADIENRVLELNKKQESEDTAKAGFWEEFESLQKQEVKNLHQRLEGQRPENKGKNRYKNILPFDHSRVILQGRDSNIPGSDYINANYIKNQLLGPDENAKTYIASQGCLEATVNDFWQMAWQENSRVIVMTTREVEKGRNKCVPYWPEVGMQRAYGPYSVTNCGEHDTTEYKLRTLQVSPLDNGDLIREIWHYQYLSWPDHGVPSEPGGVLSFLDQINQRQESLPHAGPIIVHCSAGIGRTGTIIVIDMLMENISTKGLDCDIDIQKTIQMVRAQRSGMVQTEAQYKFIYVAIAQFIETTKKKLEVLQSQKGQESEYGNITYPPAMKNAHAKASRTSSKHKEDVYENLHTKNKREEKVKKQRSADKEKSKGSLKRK

| Structure (SMILES) | IC50 [1] [µM] | IC50 [2] [µM] | IC50 [3] [µM] | IC50 [4] [µM] | IC50 [5] [µM] |
| --- | --- | --- | --- | --- | --- |
| Brc1cccc(-c2noc(Cc3c[nH]c4ccccc34)n2)c1 | > 120 | 19.7 | > 120 | > 120 | > 120 |
| COC(=O)CCCOc1ccc(-c2ccc(-c3noc(Cc4c[nH]c5ccccc45)n3)s2)cc1 | > 120 | > 120 | > 120 | > 120 | > 120 |
| CCc1ccc(-c2ccc(-c3noc(Cc4c[nH]c5ccccc45)n3)s2)cc1 | > 120 | 13.1 | > 120 | > 120 | > 120 |
| Cc1ccccc1-c1cccc(-c2noc(Cc3c[nH]c4ccccc34)n2)c1 | > 120 | 24.4 | > 120 | > 120 | > 120 |
| Cc1cccc(-c2ccc(-c3noc(Cc4c[nH]c5ccccc45)n3)s2)c1 | > 120 | > 120 | > 120 | > 120 | > 120 |
| CCCOc1ccc(-c2cccc(-c3noc(Cc4c[nH]c5ccccc45)n3)n2)cc1 | > 120 | 9.66 | > 120 | > 120 | > 120 |
| Brc1cccc(-c2noc(Cc3c[nH]c4ccccc34)n2)n1 | > 120 | > 120 | > 120 | > 120 | > 120 |
| Oc1ccc(-c2cccc(-c3noc(Cc4c[nH]c5ccccc45)n3)c2)cc1 | > 120 | 21.9 | > 120 | > 120 | > 120 |
| Cc1cccc(-c2cccc(-c3noc(Cc4c[nH]c5ccccc45)n3)n2)c1 | > 120 | 21.7 | > 120 | > 120 | > 120 |
| CCCc1ccc(-c2cccc(-c3noc(Cc4c[nH]c5ccccc45)n3)c2)cc1 | > 120 | > 120 | > 120 | > 120 | > 120 |
| Cc1ccccc1-c1cccc(-c2noc(Cc3c[nH]c4ccccc34)n2)n1 | > 120 | 26.1 | > 120 | > 120 | > 120 |
| CC1(C)CC[C@]2(C(=O)O)CC[C@]3(C)C(=CC[C@@H]4[C@@]5(C)CC[C@H](O)C(C)(C)[C@@H]5CC[C@]43C)[C@@H]2C1 [OLEANOLIC_ACID] |  |  | > 120 | > 120 |  |

Results, then the compound that gave them:

| IC50 [1] [µM] | IC50 [2] [µM] | IC50 [3] [µM] | IC50 [4] [µM] | IC50 [5] [µM] | Structure (SMILES) |
| --- | --- | --- | --- | --- | --- |
| > 120 | > 120 | > 120 | > 120 | > 120 | Nc1ccc(-c2ccc(-c3noc(Cc4c[nH]c5ccccc45)n3)s2)cc1 |
| > 120 | > 120 | > 120 | > 120 | > 120 | Nc1ccc(-c2cccc(-c3noc(Cc4c[nH]c5ccccc45)n3)c2)cc1 |
| > 120 | 14.1 | > 120 | > 120 | > 120 | Brc1ccc(-c2noc(Cc3c[nH]c4ccccc34)n2)s1 |
| > 120 | 16.8 | > 120 | > 120 | > 120 | Cc1ccccc1-c1ccc(-c2noc(Cc3c[nH]c4ccccc34)n2)s1 |
| > 120 | 8.96 | > 120 | > 120 | > 120 | CCCCc1ccc(-c2ccc(-c3noc(Cc4c[nH]c5ccccc45)n3)s2)cc1 |
| > 120 | 12.5 | > 120 | > 120 | > 120 | CCCc1ccc(-c2ccc(-c3noc(Cc4c[nH]c5ccccc45)n3)s2)cc1 |
| > 120 | 9.66 | > 120 | > 120 | > 120 | CCCCc1ccc(-c2cccc(-c3noc(Cc4c[nH]c5ccccc45)n3)n2)cc1 |
| > 120 | 15.9 | > 120 | > 120 | > 120 | CCOc1ccc(-c2cccc(-c3noc(Cc4c[nH]c5ccccc45)n3)c2)cc1 |
| > 120 | 18.4 | > 120 | > 120 | > 120 | CCCOc1ccc(-c2cccc(-c3noc(Cc4c[nH]c5ccccc45)n3)c2)cc1 |
| > 120 | 31.5 | > 120 | > 120 | > 120 | CCOc1ccc(-c2cccc(-c3noc(Cc4c[nH]c5ccccc45)n3)n2)cc1 |
| > 120 | 15.8 | > 120 | > 120 | > 120 | Cc1cccc(-c2cccc(-c3noc(Cc4c[nH]c5ccccc45)n3)c2)c1 |
| > 120 | 17.3 | > 120 | > 120 | > 120 | CCOc1ccc(-c2ccc(-c3noc(Cc4c[nH]c5ccccc45)n3)s2)cc1 |
| > 120 | 13.7 | > 120 | > 120 | > 120 | CCCOc1ccc(-c2ccc(-c3noc(Cc4c[nH]c5ccccc45)n3)s2)cc1 |
| > 120 | > 120 | > 120 | > 120 | > 120 | COC(=O)CCCOc1ccc(-c2cccc(-c3noc(Cc4c[nH]c5ccccc45)n3)c2)cc1 |
| > 120 | 8.8 | > 120 | > 120 | > 120 | CCCCc1ccc(-c2cccc(-c3noc(Cc4c[nH]c5ccccc45)n3)c2)cc1 |
